From US20240342196A1, “TARGETING SELECT LIPID SIGNALING TO COUNTER TYPE 1 DIABETES (T1D)” (The UAB Research Foundation, priority 2023, published 2024)

Experiments:
human NK cells = conditions: 0.01-10 μM, pretreatment 1 h, then 50 ng/ml IL-2, 0.33 μM PGE2, 18 hours; cited from earlier work
EP4 [1] = biological target: T1, EP4 (Homo sapiens, UniProt P35408); conditions: full antagonist; read-out: IC50 in the functional assay; cited from earlier work
NK cells = conditions: cited from earlier work
[2] = tested on: mouse model of peritonitis; conditions: 10-100 ng dose; cited from earlier work
[3] = tested on: human polymorphonuclear leukocyte (PMNL); conditions: read-out: EC50, reduction of human PMNL transendothelial migration; cited from earlier work
HCA-7 colon cancer cells = conditions: 10 μM; cited from earlier work
young rats = conditions: 10 mg/kg/day; cited from earlier work
[4] = tested on: LPS-activated human macrophages; conditions: 100 nM; cited from earlier work
EP2 = EP2 (Homo sapiens, UniProt P43116); conditions: cited from earlier work
RAW 264.7 cells = conditions: 10 μM; cited from earlier work
EP4 [5] = biological target: T1, EP4; conditions: HEK293 cells expressing EP4; cited from earlier work
EP1 = biological target: T2, EP1 (Homo sapiens, UniProt P34995); conditions: cited from earlier work
T2 sequence (P34995 1-402): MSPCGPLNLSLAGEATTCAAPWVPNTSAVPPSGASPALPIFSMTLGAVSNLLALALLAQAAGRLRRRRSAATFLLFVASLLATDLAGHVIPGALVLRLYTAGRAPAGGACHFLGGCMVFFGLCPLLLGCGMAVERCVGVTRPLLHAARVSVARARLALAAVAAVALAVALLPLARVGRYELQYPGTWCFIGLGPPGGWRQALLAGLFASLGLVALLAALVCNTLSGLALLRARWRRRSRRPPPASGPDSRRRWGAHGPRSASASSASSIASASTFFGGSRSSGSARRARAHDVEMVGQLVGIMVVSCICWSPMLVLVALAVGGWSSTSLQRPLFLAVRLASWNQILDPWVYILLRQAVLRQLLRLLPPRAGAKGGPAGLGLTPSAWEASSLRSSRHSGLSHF

EP3 = biological target: T3, EP3 (Homo sapiens, UniProt P43115); conditions: cited from earlier work
T3 sequence (P43115 1-390): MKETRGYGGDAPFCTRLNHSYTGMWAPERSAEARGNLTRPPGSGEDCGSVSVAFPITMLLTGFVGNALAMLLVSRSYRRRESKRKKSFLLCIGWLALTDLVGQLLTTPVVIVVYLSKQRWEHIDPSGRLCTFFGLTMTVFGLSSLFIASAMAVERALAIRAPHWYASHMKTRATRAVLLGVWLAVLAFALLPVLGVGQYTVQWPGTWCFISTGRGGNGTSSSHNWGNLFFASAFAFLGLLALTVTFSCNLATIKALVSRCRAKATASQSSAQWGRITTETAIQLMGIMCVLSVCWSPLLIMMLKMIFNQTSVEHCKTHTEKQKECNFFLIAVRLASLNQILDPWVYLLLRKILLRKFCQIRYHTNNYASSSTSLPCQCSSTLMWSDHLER

EP4 [6] = biological target: T1, EP4; conditions: CHO cells expressing EP4; 10 μM; cited from earlier work
Th1 helper cells = experiment: IFN-γ production by Th1 helper cells in the NOD; format: cell-based, mouse
Description: Type 1 diabetes (T1D) is a consequence of autoimmune destruction of pancreatic islet β-cells, but the involved processes remain unclear. […] The iPLA2β hydrolyzes membrane phospholipids at the sn-2 substituent to release a fatty acid (i.e., arachidonic acid), that is metabolized to generate proinflammatory (pi) lipids. We find that global reduction of iPLA2β reduces T1D incidence. Given the importance of T-lymphocytes in T1D development, we investigated the contribution of iPLA2β-derived lipids (iDLs) from T-lymphocytes with adoptive transfer and ex vitro functional approaches. The CD4^+/8^+ T-cells were purified from pre-diabetic female NOD and NOD.iPLA2β^+/− (HET) spleens. Different combinations of the cells (NOD4+8, NOD4+HET8, and NOD8+HET4) were then administered (i.p. 7.5×10^6: 2.5×10^6) to 4-week-old female immunodeficient NOD.scid mice. We find that scid recipients of a combination that included HET4 or HET8 had higher plasma insulin, decreased insulitis, and increased β-cell mass, compared to recipients of NOD4+NOD8.

NOD mice = experiment: T1D incidence in NOD mice; format: in vivo, mouse; conditions: 30-week monitoring period, vehicle only 75%
Protocol: To determine the impact of their signaling on T1D incidence, we treated NOD mice with either GP or EC alone starting at 4 weeks of age or in combination, where GP was started at 4 weeks of age and EC was introduced at 10 weeks of age. T1D incidence was recorded when blood glucose levels ≥[…] were measured in two consecutive weeks.

T1 sequence (P35408 whole entry): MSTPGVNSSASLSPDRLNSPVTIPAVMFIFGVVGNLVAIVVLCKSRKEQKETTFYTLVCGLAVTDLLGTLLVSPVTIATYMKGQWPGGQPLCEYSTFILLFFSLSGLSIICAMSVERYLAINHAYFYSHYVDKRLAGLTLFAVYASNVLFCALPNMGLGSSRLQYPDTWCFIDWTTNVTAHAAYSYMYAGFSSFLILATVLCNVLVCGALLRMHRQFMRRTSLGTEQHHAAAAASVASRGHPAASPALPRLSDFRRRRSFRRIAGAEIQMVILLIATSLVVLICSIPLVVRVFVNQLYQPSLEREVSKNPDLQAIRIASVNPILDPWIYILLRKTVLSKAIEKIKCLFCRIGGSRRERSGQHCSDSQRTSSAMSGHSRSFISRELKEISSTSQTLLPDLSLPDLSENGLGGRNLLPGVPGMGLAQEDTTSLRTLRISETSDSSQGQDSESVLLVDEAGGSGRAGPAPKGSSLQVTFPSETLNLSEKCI
Chain of EP2 (P43116 whole entry): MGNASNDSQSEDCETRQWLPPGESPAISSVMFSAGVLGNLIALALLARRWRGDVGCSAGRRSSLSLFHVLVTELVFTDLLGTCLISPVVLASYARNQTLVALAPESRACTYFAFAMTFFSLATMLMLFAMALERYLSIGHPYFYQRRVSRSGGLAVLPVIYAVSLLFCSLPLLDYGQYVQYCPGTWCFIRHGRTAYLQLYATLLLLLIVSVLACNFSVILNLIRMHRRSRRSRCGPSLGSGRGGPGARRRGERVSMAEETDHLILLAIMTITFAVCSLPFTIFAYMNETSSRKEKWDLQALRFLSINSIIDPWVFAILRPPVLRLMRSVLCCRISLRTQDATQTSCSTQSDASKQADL

Compound: O=C(O)c1ccc(C2(NC(=O)c3cccc4ccn(Cc5ccc(C(F)(F)F)cc5)c34)CC2)cc1 [MF-766]
- PGE2-suppressed IFN-γ secretion (human NK cells): reverses
- IC50 (EP4 [1]): 1.4 nM
- NK cell viability (NK cells): not affected

Compound: CC/C=C\C[C@H](O)/C=C/C=C\C=C\C=C\[C@@H](O)[C@@H](O)C/C=C\CCC(=O)O [RvD1]
- maximal inhibition of leukocyte infiltration [2]: ~35%
- EC50 [3]: ~30 nM

Compound: CCCCc1nn(-c2ccccc2C(F)(F)F)c(=O)n1Cc1ccc(-c2ccccc2S(=O)(=O)NC(=O)c2sccc2C)cc1 [L-161,982]
- PGE2-induced cell proliferation (HCA-7 colon cancer cells): blocks
- PGE2-stimulated bone formation (young rats): suppresses
- anti-inflammatory action of PGE2 [4]: reverses

Compound: CC/C=C\C[C@@H](O)/C=C/C=C\C=C\C=C\[C@@H](O)[C@@H](O)C/C=C\CCC(=O)O [17 (R)-epimer of RvD1]
- maximal inhibition of leukocyte infiltration [2]: ~35%
- EC50 [3]: ~30 nM

Compound: C/C=C/c1nnn(Cc2ccc(C(F)(F)F)cc2)c1C(=O)N[C@@H](C)c1ccc(C(=O)O)cc1 [EP4 receptor antagonist 1]
- IC50 (EP2): > 10000 nM
- GM-CSF-induced expression of II1b, II4ra, II6, Arg1, Cox2, and II10 (RAW 264.7 cells): decreases
- PGE2-induced β-arrestin recruitment (EP4 [5]): inhibits
- IC50 (EP1): > 10000 nM
- IC50 (EP3): > 10000 nM
- ERK phosphorylation induced by PGE2 (EP4 [6]): reverses

Compound: CCc1nc2c(C)nc(C)cc2n1-c1ccc(CCNC(=O)NS(=O)(=O)c2ccc(C)cc2)cc1 [grapiprant]
- IFN-γ production by Th1 helper cells (Th1 helper cells): significantly reduced
- T1D incidence (NOD mice): 50%

Compound: CC[C@H](C)C(=O)N1CCC(NC(=O)Nc2ccc(OC(F)(F)F)c(F)c2)CC1 [EC5026]
- IFN-γ production by Th1 helper cells (Th1 helper cells): significantly reduced
- T1D incidence (NOD mice): without effect
